From ChEMBL document CHEMBL1140446, “Designed multiple ligands. An emerging drug discovery paradigm” (J Med Chem, 2005)

Key:
Endothelin-1 receptor = molecular target: T1, Endothelin-1 receptor (Homo sapiens, UniProt P25101)
T1 sequence (P25101 whole entry): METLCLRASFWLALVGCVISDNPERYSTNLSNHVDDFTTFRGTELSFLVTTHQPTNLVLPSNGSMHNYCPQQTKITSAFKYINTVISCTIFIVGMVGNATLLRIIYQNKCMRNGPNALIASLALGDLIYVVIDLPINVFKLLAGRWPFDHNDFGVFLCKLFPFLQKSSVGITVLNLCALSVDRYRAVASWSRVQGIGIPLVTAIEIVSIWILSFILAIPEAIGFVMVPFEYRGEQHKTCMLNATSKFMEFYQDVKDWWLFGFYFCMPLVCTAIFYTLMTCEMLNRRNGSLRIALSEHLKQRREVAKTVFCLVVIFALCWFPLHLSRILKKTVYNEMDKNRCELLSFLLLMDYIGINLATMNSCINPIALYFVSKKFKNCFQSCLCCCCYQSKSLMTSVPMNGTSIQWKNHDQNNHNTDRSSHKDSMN
Description: Inhibitory concentration against endothelin receptor type A

[1] = molecular target: T2, Type-1 angiotensin II receptor (Homo sapiens, UniProt P30556)
T2 sequence (P30556 whole entry): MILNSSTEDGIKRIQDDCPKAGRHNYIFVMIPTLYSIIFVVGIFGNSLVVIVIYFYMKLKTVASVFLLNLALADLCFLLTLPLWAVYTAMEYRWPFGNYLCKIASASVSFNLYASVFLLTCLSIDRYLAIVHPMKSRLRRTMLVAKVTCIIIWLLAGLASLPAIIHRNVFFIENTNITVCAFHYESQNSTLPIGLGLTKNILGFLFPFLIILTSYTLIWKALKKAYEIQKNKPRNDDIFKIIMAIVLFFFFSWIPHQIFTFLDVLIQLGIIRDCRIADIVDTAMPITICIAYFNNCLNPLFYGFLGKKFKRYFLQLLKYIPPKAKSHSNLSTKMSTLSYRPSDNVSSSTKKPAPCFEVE
Description: (§1) Inhibitory concentration against angiotensin II receptor, type 1

Thromboxane-A synthase = Thromboxane-A synthase (Homo sapiens, UniProt P24557)
Description: Inhibitory concentration against thromboxane A2 synthase

[2] = molecular target: T3, Polyunsaturated fatty acid 5-lipoxygenase (Homo sapiens, UniProt P09917)
T3 sequence (P09917 whole entry): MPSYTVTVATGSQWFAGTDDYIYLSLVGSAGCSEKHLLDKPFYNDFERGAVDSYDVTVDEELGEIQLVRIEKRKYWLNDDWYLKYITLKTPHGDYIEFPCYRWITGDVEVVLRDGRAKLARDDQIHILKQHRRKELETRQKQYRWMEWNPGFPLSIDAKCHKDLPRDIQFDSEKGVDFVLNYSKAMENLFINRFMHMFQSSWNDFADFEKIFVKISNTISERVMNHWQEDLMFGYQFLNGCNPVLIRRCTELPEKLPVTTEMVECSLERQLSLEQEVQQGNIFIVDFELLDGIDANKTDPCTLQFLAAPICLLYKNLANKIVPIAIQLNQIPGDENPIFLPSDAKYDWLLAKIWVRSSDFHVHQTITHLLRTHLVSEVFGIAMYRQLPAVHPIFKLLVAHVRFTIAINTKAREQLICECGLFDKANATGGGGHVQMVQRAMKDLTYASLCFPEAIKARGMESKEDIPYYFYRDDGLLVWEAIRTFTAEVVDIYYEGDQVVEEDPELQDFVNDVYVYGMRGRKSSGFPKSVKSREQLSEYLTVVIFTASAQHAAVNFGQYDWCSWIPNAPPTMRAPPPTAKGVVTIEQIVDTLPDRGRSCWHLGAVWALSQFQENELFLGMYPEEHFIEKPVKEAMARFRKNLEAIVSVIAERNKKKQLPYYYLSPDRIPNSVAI
Description: Inhibitory concentration against arachidonate 5-lipoxygenase

[3] = molecular target: T2, Type-1 angiotensin II receptor; remark: listed apart in the source
Description: as §1

[4] = molecular target: T4, Type-2 angiotensin II receptor (Homo sapiens, UniProt P50052)
T4 sequence (P50052 whole entry): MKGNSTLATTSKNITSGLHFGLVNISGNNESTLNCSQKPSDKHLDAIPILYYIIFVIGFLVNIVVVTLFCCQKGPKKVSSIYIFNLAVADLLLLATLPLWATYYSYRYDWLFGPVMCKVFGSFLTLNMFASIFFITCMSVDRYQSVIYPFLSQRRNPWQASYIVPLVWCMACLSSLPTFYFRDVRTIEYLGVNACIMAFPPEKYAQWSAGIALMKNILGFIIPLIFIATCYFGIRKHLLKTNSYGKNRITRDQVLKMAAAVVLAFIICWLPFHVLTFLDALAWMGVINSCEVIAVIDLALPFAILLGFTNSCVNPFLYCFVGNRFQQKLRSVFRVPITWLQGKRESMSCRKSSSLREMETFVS
Description: Inhibitory concentration against angiotensin II receptor, type 2

Thromboxane A2 receptor = molecular target: T5, Thromboxane A2 receptor (Homo sapiens, UniProt P21731)
T5 sequence (P21731 whole entry): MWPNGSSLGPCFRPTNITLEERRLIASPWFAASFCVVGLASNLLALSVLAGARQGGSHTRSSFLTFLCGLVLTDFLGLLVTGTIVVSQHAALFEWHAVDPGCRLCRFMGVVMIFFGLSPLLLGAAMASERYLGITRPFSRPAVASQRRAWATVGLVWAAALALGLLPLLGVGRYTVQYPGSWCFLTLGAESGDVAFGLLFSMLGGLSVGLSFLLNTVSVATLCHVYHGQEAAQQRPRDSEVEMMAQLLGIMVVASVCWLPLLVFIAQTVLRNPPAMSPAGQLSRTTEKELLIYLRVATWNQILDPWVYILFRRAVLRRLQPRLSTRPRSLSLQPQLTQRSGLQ
Description: Inhibition constant against thromboxane A2 receptor to prostaglandin H2 receptor

Histamine H1 receptor = Histamine H1 receptor (Homo sapiens, UniProt P35367)
Description: Inhibition constant against histamine H1 receptor

Substance-P receptor = Substance-P receptor (Homo sapiens, UniProt P25103); test: Inhibitory concentration against tachykinin receptor 1
Substance-K receptor = molecular target: T6, Substance-K receptor (Homo sapiens, UniProt P21452)
T6 sequence (P21452 whole entry): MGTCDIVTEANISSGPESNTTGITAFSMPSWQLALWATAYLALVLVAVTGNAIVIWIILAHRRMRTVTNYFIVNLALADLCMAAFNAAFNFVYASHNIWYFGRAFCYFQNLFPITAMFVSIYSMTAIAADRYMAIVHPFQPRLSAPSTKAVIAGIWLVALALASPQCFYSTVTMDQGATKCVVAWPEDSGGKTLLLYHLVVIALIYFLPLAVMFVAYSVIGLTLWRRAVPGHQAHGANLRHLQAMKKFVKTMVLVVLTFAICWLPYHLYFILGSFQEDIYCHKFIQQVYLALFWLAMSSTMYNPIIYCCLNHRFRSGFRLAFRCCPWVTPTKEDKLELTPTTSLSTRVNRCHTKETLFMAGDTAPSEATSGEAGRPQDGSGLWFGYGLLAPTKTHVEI
Description: Inhibitory concentration against tachykinin receptor 2

[5] = molecular target: Prostaglandin G/H synthase 1 (Homo sapiens, UniProt P23219)
Description: Inhibitory concentration against prostaglandin G/H synthase 1

[6] = molecular target: T7, Peroxisome proliferator-activated receptor gamma (Homo sapiens, UniProt P37231)
T7 sequence (P37231 whole entry): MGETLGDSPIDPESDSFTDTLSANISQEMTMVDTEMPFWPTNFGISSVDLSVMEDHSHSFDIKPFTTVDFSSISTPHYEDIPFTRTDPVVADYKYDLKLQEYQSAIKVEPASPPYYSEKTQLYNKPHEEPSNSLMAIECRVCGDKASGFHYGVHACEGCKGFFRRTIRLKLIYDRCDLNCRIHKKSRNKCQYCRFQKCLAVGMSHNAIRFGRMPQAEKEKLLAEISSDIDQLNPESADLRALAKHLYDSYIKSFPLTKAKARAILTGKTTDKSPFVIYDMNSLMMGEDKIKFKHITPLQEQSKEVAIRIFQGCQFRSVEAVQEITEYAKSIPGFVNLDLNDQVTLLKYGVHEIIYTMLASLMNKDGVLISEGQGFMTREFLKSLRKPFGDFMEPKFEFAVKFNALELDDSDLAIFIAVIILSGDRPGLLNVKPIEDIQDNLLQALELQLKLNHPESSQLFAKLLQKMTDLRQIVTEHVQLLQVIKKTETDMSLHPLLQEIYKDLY
Description: Binding affinity towards peroxisome proliferator activated receptor gamma

[7] = molecular target: T8, Peroxisome proliferator-activated receptor alpha (Homo sapiens, UniProt Q07869)
T8 sequence (Q07869 whole entry): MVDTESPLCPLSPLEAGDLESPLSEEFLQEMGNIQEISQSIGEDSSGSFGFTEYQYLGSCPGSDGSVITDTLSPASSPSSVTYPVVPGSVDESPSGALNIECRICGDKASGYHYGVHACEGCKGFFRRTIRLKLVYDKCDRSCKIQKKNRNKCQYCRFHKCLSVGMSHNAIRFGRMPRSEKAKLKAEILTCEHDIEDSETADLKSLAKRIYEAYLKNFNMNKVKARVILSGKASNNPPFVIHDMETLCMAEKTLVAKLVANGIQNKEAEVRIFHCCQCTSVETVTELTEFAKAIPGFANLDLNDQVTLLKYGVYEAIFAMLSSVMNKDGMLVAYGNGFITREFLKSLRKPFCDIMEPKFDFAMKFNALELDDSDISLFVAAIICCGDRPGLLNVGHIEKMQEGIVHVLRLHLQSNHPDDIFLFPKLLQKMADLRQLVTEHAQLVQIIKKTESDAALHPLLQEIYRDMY
Description: Binding affinity towards peroxisome proliferator activated receptor alpha

Prostaglandin G/H synthase 1, sequence (P23219 whole entry): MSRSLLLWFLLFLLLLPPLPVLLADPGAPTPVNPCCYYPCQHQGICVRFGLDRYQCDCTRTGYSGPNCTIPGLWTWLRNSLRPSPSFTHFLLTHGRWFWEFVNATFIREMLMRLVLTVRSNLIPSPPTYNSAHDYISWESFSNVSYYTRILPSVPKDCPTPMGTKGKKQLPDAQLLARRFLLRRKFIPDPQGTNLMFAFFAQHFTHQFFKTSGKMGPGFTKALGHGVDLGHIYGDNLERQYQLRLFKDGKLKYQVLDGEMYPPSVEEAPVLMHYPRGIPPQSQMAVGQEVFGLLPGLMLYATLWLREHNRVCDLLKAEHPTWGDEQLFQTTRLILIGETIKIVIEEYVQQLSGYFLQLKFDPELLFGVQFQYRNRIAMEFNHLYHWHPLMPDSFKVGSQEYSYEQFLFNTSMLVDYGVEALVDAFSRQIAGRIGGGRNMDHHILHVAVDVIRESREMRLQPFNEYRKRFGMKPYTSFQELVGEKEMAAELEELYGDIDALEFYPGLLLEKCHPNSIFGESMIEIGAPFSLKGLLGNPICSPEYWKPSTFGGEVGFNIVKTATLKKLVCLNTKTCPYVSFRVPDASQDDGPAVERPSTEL
Substance-P receptor, sequence (P25103 whole entry): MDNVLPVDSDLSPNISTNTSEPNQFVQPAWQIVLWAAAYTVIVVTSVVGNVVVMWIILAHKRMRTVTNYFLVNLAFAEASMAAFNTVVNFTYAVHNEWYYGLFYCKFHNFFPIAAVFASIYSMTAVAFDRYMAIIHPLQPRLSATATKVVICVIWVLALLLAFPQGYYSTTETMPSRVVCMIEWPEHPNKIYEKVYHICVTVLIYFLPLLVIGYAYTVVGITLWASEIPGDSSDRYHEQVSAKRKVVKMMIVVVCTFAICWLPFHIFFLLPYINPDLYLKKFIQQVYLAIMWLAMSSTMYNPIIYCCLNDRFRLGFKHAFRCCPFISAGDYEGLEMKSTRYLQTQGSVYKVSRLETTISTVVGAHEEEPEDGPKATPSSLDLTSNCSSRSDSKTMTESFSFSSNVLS
Histamine H1 receptor, sequence (P35367 whole entry): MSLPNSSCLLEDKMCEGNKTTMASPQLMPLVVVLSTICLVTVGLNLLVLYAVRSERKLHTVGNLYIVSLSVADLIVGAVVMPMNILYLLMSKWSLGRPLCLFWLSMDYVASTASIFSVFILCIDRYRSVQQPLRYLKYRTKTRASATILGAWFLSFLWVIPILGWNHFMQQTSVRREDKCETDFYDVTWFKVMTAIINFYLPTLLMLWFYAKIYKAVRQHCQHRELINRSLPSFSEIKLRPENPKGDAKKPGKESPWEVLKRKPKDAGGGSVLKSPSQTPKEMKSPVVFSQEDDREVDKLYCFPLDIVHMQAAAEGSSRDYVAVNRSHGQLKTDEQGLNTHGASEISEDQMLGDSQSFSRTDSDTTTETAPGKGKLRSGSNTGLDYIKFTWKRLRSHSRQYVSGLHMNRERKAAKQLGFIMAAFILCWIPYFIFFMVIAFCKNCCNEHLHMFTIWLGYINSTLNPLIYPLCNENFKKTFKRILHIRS
Thromboxane-A synthase, sequence (P24557 whole entry): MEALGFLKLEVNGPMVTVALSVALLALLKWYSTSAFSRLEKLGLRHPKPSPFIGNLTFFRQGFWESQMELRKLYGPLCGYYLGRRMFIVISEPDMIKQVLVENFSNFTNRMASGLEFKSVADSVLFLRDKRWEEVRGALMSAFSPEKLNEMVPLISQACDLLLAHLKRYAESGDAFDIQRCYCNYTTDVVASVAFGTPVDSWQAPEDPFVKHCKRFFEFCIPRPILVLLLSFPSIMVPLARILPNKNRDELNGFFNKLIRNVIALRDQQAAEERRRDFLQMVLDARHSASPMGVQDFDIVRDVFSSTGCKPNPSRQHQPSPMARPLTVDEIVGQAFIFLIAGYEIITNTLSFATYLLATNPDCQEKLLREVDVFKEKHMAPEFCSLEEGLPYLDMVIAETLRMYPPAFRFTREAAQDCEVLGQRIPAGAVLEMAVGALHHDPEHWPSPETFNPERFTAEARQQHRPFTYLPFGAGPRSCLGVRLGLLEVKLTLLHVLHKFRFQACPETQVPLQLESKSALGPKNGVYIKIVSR

Compound Cc1onc(NS(=O)(=O)c2ccccc2-c2ccc(-c3ncco3)cc2CN(C)C(=O)CC(C)(C)C)c1C [EDONENTAN] has a Ki (Endothelin-1 receptor) of 10 nM and a Ki [1] greater than 10 nM.
CNc1nc2c(Cc3cccnc3)c(C)c(O)c(C)c2s1 showed an IC50 (Thromboxane-A synthase) of 90 nM and an IC50 [2] of 100 nM.
CCCCCN(C(=O)c1ccccc1)c1ccc2nc(CCC)n(Cc3ccc(-c4ccccc4-c4nn[nH]n4)cc3)c(=O)c2c1 gave an IC50 [3] of 1.7 nM and an IC50 [4] of 0.7 nM.
O=C(O)Cc1ccc2c(c1)C(=CCN1CCC(Cc3ccccc3)CC1)c1ccccc1CO2 showed a Ki (Thromboxane A2 receptor) of 740 nM and a Ki (Histamine H1 receptor) of 20 nM.
COc1cc(C(=O)N2CC[C@@](CCN3CCC(C(N)=O)(c4ccccc4)CC3)(c3ccc(Cl)c(Cl)c3)C2)cc(OC)c1OC showed an IC50 (Substance-P receptor) of 3.1 nM and an IC50 (Substance-K receptor) of 8.4 nM.
Work on CC1(C)Cc2c(-c3ccccc3)c(-c3ccc(Cl)cc3)c(CC(=O)O)n2C1 [LICOFELONE] yielded an IC50 [2] of 210 nM and an IC50 [5] of 160 nM.
With CCCCC1=NC2(CCCC2)C(=O)N1Cc1ccc(-c2ccccc2S(=O)(=O)Nc2noc(C)c2C)c(COCC)c1 the Ki (Endothelin-1 receptor) was 9.3 nM and the Ki [1] was 0.8 nM.
CC(Cc1ccccc1)(Oc1ccc(Cl)cc1)C(=O)O (configuration not stated) gave an IC50 [6] of 3900 nM and an IC50 [7] of 4400 nM.
In the case of Cc1oc(-c2ccccc2)nc1CCOc1ccc(OC(C)(C)C(=O)O)cc1, the IC50 [6] is reported as 2570 nM and the IC50 [7] is reported as 1740 nM.
Work on COC1(c2cc(F)cc(OCc3cc(-c4ccccc4)n(-c4ccc(S(C)(=O)=O)cc4)n3)c2)CCOCC1 yielded an IC50 [5] greater than 10 nM.
With O=C(O)c1ccc2c(c1)/C(=C/Cn1cnc3ccccc31)c1ccccc1CO2 the Ki (Thromboxane A2 receptor) was 15 nM.
For CN(C)C/C=C1\c2ccccc2COc2ccc(CC(=O)O)cc21, the Ki (Thromboxane A2 receptor) was greater than 1000 nM and the Ki (Histamine H1 receptor) was 11 nM.
Cc1c(Cc2ccncc2)n(CCNS(=O)(=O)c2ccc(F)cc2)c2ccc(CCC(=O)O)cc12 was tested, and the IC50 (Thromboxane-A synthase) was 78 nM.
For NC(=O)C1(c2ccccc2)CCN(CC[C@@]2(c3ccc(Cl)c(Cl)c3)CCN(C(=O)c3ccccc3)C2)CC1, the IC50 (Substance-P receptor) was 161 nM and the IC50 (Substance-K receptor) was 2.25 nM.
CCCCc1nc2ccc(NC(=O)N(C)C(C)C)cc2c(=O)n1Cc1ccc(-c2ccccc2-c2nnn[nH]2)cc1 gave an IC50 [3] of 0.1 nM and an IC50 [4] of 4500 nM.
